Experimental data reported in ChEMBL document CHEMBL1152045, “Synthesis of the pyrimidine analog of 4,5,6,7-tetrahydroimidazo[4,5,1-jk][1,4]benzodiazepin-2(1H)one (TIBO) potential for HIV-1 inhibition” (Bioorg Med Chem Lett, 1991).
pIC50: −log10 of the molar value.

Key:
MT4 [1] = experiment: Compound was tested for its anti HIV-1 activity in MT-4 cells up to 2 uM concentration; No activity against HIV-l virus replication.; format: functional, cell-based, Homo sapiens
MT4 [2] = experiment: Compound was tested for its anti HIV-1 activity in MT-4 cells.; format: functional, cell-based; settings: Homo sapiens

Compound | IC50 (MT4 [1]) | pIC50 (MT4 [2])
CC(C)=CCN1Cc2ncnc3nc(O)n(c23)CC1C (configuration not stated) | Not Active | 
CC(C)=CCN1Cc2cc(Cl)cc3[nH]c(=S)n(c23)C[C@@H]1C |  | 7.38
